{
  "source": "paper PMC6580366",
  "about": "(Journal of Medicinal Chemistry, 2019)",
  "key": {"[1]": {"details": "dog, 1 μM; cited from earlier work"}, "[2]": {"test_system": "CYP mRNA expression (CYP1A2, CYP2B, CYP3A)", "details": "0.5 to 50 μM, 48 h"}, "BV2 microglia cell line": {"test_system": "BV2 microglia cell line", "details": "cited from earlier work"}, "[3]": {"details": "human, 1 μM; cited from earlier work"}, "P-gp/Caco-2": {"test_system": "P-gp/Caco-2", "details": "5 μM; cited from earlier work"}, "BCRP/MDCK": {"test_system": "BCRP/MDCK", "details": "5 μM; cited from earlier work"}},
  "note": "Like-named read-outs stand apart in the source and are kept apart here.",
  "data": [
    {"smiles": "CN1CCN(c2cc(-c3ccncc3)c(-c3ccc4ccccc4c3)nn2)CC1", "note": "[Compound 11, 6-(4-Methylpiperazin-1-yl)-3-(naphthalen-2-yl)-4-(pyridin-4-yl)pyridazine]", "values": [
      {"measurement": "Hepatocyte stability T1/2", "setting": "[1]", "result": "Human, T1/2 > 120 min; dog, T1/2 > 120 min (see ref ([14]))"},
      {"measurement": "CYP induction", "setting": "[2]", "result": "Negative (see Experimental Section)"},
      {"measurement": "cell proliferation, migration, or phagocytosis", "setting": "BV2 microglia cell line", "result": "No effect on cell proliferation, migration, or phagocytosis"},
      {"measurement": "Hepatocyte stability T1/2", "setting": "[3]", "result": "Human, T1/2 > 120 min; dog, T1/2 > 120 min (see ref ([14]))"},
      {"measurement": "Permeability Caco-2", "setting": "P-gp/Caco-2", "result": "highly permeable"},
      {"measurement": "Pump substrate status P-gp", "setting": "P-gp/Caco-2", "result": "Not substrate"},
      {"measurement": "Permeability MDCK", "setting": "BCRP/MDCK", "result": "highly permeable"},
      {"measurement": "Pump substrate status BCRP", "setting": "BCRP/MDCK", "result": "Not substrate"}
    ]}
  ]
}
